Experimental data published in ChEMBL document CHEMBL4507299, “Data for DCP probe PF-04554878” (2021).
Calls of active or inactive are those of the source. The calls are words filed in the database; no cut-off is given here.

How the values were obtained:
[1] = biological target: Dual specificity protein kinase TTK (Homo sapiens) (UniProt P33981)
[2] = biological target: Tyrosine-protein kinase CSK (Homo sapiens) (UniProt P41240)
[3] = biological target: T1, Aurora kinase A (Homo sapiens) (UniProt O14965)
T1 sequence (whole entry): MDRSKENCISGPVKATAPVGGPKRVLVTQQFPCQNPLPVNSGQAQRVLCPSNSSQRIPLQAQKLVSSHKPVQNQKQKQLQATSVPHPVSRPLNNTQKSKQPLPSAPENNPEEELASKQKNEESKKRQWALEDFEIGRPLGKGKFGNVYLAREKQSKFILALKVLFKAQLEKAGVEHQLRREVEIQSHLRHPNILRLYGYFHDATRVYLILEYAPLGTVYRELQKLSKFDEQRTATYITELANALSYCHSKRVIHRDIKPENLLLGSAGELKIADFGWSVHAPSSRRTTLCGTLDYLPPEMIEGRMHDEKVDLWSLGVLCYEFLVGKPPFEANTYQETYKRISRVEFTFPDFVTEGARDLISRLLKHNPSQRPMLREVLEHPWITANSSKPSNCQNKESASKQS

[4] = biological target: Mitogen-activated protein kinase kinase kinase 14 (Homo sapiens) (UniProt Q99558)
Sequence of Mitogen-activated protein kinase kinase kinase 14 (Homo sapiens) (Q99558 whole entry, looked up): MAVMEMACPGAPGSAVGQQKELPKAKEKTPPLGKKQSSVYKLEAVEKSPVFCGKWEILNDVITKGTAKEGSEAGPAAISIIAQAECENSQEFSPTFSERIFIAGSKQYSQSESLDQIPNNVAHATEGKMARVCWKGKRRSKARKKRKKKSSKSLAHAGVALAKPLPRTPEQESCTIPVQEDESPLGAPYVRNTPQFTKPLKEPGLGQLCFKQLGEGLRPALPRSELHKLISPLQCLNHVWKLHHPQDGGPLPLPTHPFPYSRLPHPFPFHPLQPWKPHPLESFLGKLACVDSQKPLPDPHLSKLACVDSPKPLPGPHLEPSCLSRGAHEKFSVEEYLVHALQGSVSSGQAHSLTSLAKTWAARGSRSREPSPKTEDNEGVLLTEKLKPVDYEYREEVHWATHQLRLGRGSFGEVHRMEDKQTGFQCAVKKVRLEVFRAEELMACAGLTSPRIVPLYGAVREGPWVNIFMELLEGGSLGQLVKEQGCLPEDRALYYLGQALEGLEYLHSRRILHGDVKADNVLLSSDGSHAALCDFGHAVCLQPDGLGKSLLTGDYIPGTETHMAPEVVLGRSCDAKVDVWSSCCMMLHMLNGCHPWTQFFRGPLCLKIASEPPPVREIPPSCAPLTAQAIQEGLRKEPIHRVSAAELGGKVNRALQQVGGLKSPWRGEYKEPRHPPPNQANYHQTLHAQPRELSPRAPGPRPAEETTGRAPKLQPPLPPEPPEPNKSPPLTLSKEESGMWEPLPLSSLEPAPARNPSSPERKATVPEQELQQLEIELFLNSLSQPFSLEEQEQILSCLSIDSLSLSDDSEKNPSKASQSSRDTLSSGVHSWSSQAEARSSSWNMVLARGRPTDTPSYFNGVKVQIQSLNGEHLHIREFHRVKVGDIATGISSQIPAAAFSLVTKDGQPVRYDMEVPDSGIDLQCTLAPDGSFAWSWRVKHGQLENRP

[5] = biological target: Serine/threonine-protein kinase PLK1 (Homo sapiens) (UniProt P53350)
[6] = biological target: Casein kinase I isoform gamma-2 (Homo sapiens) (UniProt P78368)
[7] = biological target: Tyrosine-protein kinase Fgr (Homo sapiens) (UniProt P09769)
[8] = biological target: Non-receptor tyrosine-protein kinase TYK2 (Homo sapiens) (UniProt P29597)
[9] = biological target: Phosphatidylinositol 4,5-bisphosphate 3-kinase catalytic subunit delta isoform (Homo sapiens) (UniProt O00329)
Sequence of Phosphatidylinositol 4,5-bisphosphate 3-kinase catalytic subunit delta isoform (Homo sapiens) (O00329 whole entry, canonical isoform): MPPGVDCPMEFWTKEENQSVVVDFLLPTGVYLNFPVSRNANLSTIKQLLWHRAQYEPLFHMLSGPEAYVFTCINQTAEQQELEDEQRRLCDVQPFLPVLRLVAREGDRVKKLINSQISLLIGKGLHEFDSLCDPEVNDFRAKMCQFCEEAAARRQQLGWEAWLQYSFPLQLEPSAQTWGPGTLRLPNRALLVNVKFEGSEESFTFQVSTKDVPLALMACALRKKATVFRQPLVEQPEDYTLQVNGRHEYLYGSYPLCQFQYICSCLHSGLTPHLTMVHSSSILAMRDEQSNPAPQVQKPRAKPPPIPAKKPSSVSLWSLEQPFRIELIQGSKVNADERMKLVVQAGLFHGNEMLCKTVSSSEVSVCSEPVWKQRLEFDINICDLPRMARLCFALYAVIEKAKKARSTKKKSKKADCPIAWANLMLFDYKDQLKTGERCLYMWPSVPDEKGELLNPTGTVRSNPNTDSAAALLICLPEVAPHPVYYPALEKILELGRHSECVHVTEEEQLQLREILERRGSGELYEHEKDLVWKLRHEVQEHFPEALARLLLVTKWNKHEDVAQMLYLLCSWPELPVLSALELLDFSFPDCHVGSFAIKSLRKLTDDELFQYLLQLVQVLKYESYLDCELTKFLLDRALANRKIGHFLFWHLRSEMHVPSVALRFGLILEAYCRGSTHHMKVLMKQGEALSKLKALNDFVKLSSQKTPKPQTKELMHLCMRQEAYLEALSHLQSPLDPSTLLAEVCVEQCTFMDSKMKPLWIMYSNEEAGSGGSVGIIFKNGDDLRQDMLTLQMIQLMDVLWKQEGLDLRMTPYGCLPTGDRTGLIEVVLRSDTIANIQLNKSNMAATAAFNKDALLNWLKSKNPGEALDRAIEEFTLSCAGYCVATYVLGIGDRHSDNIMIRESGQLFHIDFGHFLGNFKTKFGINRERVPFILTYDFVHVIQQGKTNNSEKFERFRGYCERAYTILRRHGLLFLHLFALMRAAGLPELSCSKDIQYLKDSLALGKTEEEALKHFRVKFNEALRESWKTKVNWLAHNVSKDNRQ

[10] = biological target: Homeodomain-interacting protein kinase 2 (Homo sapiens) (UniProt Q9H2X6)
[11] = biological target: Mitogen-activated protein kinase kinase kinase 3 (Homo sapiens) (UniProt Q99759)
Sequence of Mitogen-activated protein kinase kinase kinase 3 (Homo sapiens) (Q99759 whole entry): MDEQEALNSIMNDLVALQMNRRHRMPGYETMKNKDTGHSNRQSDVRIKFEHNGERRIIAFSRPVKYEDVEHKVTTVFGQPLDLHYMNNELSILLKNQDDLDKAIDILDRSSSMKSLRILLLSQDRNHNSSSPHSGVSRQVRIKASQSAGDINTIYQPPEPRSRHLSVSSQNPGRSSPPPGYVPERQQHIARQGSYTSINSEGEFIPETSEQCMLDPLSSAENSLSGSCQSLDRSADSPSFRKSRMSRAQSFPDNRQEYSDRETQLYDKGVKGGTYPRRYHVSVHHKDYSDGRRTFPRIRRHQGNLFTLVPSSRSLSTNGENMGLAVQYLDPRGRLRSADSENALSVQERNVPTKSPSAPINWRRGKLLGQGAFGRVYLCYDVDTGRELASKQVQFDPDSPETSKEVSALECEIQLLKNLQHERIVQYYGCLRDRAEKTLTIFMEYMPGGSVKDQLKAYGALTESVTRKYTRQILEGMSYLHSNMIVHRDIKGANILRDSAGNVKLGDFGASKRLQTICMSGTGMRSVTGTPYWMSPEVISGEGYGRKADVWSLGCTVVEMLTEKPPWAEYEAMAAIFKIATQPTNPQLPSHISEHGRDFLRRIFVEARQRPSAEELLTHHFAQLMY

[12] = biological target: Protein kinase C iota type (Homo sapiens) (UniProt P41743)
[13] = tested on: Mast/stem cell growth factor receptor Kit (Homo sapiens), P10721 [V559D,V654A]
[14] = biological target: Cyclin-dependent kinase 4 (Homo sapiens) (UniProt P11802)
Sequence of Cyclin-dependent kinase 4 (Homo sapiens) (P11802 whole entry): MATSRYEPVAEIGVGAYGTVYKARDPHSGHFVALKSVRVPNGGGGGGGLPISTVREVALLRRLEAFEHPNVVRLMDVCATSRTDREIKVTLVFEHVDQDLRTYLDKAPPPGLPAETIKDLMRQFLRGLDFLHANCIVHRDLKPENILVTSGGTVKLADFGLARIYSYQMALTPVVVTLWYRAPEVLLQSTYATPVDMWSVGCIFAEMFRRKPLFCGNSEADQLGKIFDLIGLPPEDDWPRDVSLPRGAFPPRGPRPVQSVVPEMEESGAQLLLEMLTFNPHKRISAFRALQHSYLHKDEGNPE

[15] = biological target: Ribosomal protein S6 kinase alpha-5 (Homo sapiens) (UniProt O75582)
[16] = biological target: Beta-3 adrenergic receptor (Homo sapiens) (UniProt P13945); conditions: Compound concentration 10.0 uM
Sequence of Beta-3 adrenergic receptor (Homo sapiens) (P13945 whole entry, looked up): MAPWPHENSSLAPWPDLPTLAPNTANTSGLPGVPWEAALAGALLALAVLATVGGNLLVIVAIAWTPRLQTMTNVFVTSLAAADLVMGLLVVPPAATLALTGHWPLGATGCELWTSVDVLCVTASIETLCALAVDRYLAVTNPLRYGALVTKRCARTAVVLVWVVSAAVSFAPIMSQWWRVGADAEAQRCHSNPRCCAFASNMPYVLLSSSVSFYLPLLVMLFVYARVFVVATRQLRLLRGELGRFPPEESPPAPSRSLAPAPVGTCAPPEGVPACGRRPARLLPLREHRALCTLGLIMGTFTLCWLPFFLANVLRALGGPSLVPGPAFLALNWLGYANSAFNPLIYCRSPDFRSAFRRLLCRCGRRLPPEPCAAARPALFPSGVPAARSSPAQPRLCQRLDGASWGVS

[17] = biological target: Insulin receptor (Homo sapiens) (UniProt P06213)
[18] = biological target: Mitogen-activated protein kinase kinase kinase 10 (Homo sapiens) (UniProt Q02779)
Sequence of Mitogen-activated protein kinase kinase kinase 10 (Homo sapiens) (Q02779 whole entry, looked up): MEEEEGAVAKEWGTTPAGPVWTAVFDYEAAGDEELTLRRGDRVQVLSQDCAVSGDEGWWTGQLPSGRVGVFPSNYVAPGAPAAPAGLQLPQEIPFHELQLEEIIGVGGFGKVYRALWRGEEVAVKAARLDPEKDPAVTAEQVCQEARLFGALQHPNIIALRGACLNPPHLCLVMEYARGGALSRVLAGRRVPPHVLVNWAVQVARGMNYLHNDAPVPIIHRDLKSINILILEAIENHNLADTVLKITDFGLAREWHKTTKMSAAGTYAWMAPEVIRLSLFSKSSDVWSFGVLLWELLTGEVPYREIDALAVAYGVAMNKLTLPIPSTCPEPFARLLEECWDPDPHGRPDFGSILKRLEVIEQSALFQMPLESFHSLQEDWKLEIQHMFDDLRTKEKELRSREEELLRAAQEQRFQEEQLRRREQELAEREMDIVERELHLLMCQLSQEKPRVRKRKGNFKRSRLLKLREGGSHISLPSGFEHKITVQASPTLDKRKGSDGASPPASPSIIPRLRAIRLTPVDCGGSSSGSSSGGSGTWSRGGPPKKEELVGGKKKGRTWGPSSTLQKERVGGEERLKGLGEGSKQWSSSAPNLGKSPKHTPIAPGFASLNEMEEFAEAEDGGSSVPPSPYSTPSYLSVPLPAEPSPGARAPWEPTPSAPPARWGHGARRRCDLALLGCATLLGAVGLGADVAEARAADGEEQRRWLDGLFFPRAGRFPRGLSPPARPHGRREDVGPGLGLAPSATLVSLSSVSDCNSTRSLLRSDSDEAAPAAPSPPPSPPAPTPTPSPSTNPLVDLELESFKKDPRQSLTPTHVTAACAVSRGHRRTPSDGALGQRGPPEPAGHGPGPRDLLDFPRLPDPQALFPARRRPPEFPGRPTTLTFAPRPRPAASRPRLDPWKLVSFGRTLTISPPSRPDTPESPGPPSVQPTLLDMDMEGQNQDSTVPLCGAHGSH

[19] = biological target: Mitogen-activated protein kinase kinase kinase kinase 1 (Homo sapiens) (UniProt Q92918)
[20] = biological target: T2, Tyrosine-protein kinase JAK3 (Homo sapiens) (UniProt P52333)
T2 sequence (whole entry): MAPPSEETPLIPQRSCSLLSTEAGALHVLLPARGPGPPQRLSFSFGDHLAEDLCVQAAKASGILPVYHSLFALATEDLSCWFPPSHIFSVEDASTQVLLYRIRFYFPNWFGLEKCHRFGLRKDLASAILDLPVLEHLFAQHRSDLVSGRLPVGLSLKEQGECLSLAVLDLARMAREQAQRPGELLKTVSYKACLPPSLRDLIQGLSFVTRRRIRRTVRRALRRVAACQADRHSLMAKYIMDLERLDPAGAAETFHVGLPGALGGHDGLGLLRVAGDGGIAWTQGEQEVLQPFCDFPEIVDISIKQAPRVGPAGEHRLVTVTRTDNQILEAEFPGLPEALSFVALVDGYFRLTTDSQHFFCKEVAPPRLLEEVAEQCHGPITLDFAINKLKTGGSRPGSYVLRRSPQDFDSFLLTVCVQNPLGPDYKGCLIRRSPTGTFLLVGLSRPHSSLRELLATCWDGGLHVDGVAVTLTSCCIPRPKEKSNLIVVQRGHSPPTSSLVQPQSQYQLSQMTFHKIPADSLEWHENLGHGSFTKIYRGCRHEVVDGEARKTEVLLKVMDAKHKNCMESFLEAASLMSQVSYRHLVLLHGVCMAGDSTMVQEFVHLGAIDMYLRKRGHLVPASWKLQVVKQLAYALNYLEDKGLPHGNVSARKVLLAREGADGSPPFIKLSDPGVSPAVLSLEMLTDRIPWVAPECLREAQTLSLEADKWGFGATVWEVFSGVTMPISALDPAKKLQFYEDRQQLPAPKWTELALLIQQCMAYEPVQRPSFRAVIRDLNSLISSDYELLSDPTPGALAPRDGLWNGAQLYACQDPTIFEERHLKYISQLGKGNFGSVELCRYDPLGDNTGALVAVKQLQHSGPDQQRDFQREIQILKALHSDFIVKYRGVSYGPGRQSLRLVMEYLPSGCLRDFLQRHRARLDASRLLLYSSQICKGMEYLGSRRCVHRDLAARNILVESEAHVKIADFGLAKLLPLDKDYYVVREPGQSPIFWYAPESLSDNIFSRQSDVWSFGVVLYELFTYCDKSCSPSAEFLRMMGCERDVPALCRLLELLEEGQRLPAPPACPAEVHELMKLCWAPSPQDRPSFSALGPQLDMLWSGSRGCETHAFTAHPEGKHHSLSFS

[21] = biological target: Phosphatidylinositol 4,5-bisphosphate 3-kinase catalytic subunit alpha isoform (Homo sapiens) (UniProt P42336)
[22] = biological target: Muscarinic acetylcholine receptor M5 (Homo sapiens) (UniProt P08912); conditions: Compound concentration 10.0 uM
[23] = tested on: Phosphatidylinositol 4,5-bisphosphate 3-kinase catalytic subunit alpha isoform (Homo sapiens), P42336 [E545K]
[24] = biological target: TGF-beta receptor type-2 (Homo sapiens) (UniProt P37173)
[25] = biological target: Protein-tyrosine kinase 2-beta (Homo sapiens, UniProt Q14289); experiment: Binding assay (PTK2B)
[26] = Compound concentration 100.0 nM
[27] = Compound concentration 1000.0 nM

Sequence of Tyrosine-protein kinase CSK (Homo sapiens) (P41240 2-450 limits assumed): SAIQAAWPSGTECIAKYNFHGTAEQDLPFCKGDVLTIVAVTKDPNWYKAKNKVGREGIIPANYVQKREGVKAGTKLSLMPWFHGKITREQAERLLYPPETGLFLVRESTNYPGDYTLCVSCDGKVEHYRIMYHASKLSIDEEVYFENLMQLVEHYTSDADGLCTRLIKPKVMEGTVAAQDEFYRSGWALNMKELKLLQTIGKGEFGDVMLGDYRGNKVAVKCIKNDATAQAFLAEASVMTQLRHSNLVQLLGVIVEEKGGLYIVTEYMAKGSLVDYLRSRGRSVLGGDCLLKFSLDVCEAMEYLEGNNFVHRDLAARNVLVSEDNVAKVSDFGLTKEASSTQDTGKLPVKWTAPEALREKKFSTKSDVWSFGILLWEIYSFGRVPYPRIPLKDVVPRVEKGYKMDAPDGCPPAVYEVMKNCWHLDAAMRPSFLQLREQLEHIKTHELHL

CNC(=O)c1ccc(Nc2ncc(C(F)(F)F)c(NCc3nccnc3N(C)S(C)(=O)=O)n2)cc1 [DEFACTINIB]
residual activity [1, 26]: 8.3%
residual activity [2, 26]: 100%
residual activity [3, 26]: 50%
residual activity [4, 26]: 92%
residual activity [5, 26]: 84%
residual activity [6, 26]: 99%
residual activity [7, 26]: 81%
residual activity [8, 26]: 27%
residual activity [9, 26]: 90%
residual activity [10, 26]: 37%
residual activity [11, 26]: 81%
residual activity [12, 26]: 84%
residual activity [13, 26]: 100%
residual activity [14, 26]: 100%
residual activity [15, 26]: 81%
inhibition [16]: 4.63%
residual activity [17, 26]: 91%
residual activity [18, 26]: 68%
residual activity [19, 26]: 18%
residual activity [20, 26]: 8.2%
residual activity [21, 26]: 100%
inhibition [22]: 5.41%
residual activity [23, 26]: 100%
residual activity [24, 26]: 100%
IC50 [25]: 0.2 nM (active)

CN(c1ccnc(CNc2nc(Nc3ccc4c(c3)CC(=O)N4)ncc2C(F)(F)F)n1)S(C)(=O)=O [PF-00911705]
residual activity [1, 27]: 13%
residual activity [2, 27]: 74%
residual activity [3, 27]: 14%
residual activity [4, 27]: 65%
residual activity [5, 27]: 7.6%
residual activity [6, 27]: 100%
residual activity [7, 27]: 58%
residual activity [8, 27]: 27%
residual activity [9, 27]: 77%
residual activity [10, 27]: 54%
residual activity [11, 27]: 44%
residual activity [12, 27]: 55%
residual activity [13, 27]: 67%
residual activity [14, 27]: 63%
residual activity [15, 27]: 96%
inhibition [16]: 1.64%
residual activity [17, 27]: 100%
residual activity [18, 27]: 49%
residual activity [19, 27]: 33%
residual activity [20, 27]: 1.9%
residual activity [21, 27]: 100%
inhibition [22]: -6.47%
residual activity [23, 27]: 100%
residual activity [24, 27]: 100%
IC50 [25]: 721 nM (not active)
